Laboratory results: article PMC11050816, “Pharmacokinetics and Safety of Lurbinectedin Administrated with Itraconazole in Cancer Patients: A Drug–Drug Interaction Study” (Marine Drugs, 2024)

Key:
[1] = cited from earlier work
[2] = Plasma pharmacokinetics of lurbinectedin metabolites M1 and M4 (metabolite/parent ratio) with and without itraconazole
Method: The study consisted of two parts. In Part A, three patients were sequentially enrolled to receive Sequence 1 (TR: Test–Reference) consisting of itraconazole (200 mg […]; once-daily for 12 days) co-administered with lurbinectedin (0.8 mg/m^2, 1 h, IV infusion q3wk) (Cycle 1), followed by two consecutive cycles (Cycles 2 and 3) of lurbinectedin alone (3.2 mg/m^2, 1 h, IV infusion q3wk), with the third cycle being optional. In Part B, patients were randomized (in a ratio 1:1, using sequence a block randomization implemented with Medidata Rave Randomization and Trial Supply Management [RTSM]) to receive either Sequence 1 (TR: Test–Reference), but with lurbinectedin 0.9 mg/m^2, 1 h, IV when co-administered with itraconazole, or Sequence 2 (RT: Reference–Test) of lurbinectedin alone (Cycle 1), followed by itraconazole and lurbinectedin co-administration (Cycle 2), with lurbinectedin alone (optional Cycle 3) (see Figure 2 above).
The itraconazole dose (200 mg) was selected based on the published literature for the design of clinical drug–drug interaction studies with itraconazole. In the co-administration cycles, itraconazole was administered as 200 mg (2 × 100 mg capsules) once-daily doses in the morning after breakfast for 12 consecutive days, self-administered at home starting from […] (i.e., four days before lurbinectedin infusion) to Day 8 (i.e., seven days after lurbinectedin infusion), following recommendations from the Summary of Product Characteristics. On Day 1 (day of lurbinectedin infusion), itraconazole was given immediately prior to the start of the lurbinectedin infusion. In fact, itraconazole had to be administered after collecting the first itraconazole PK sample and before the start of lurbinectedin infusion (−15 min to −1 min). In case of lurbinectedin delay (≤2 days), itraconazole could be administered for a maximum of 14 days (Figure 6). In Sequence 1 (TR), itraconazole for self-administration and the patient’s diary were given to the patient on Day −5 with a −2/+1 daytime window (i.e., from Day −7 to Day −4). In Sequence 2 (RT), itraconazole and the patient’s diary were given to the patient on Day −5 of Cycle 2 with a −2/+1 daytime window (i.e., from Day 15 of Cycle 1 to Day −4 of Cycle 2).
The impact of itraconazole on the lurbinectedin PK profile compared with that of lurbinectedin alone was evaluated using the primary study PK endpoints: Cmax and AUC0–∞ of total plasma lurbinectedin. Other secondary PK endpoints included AUC0–t, total plasma CL, t1/2, and the volume of distribution at steady state (Vss). The following unbound parameters were also estimated: AUCu,0–∞, AUCu,0–t, Cu,max, CLu, Vss,u, and t1/2,u. Plasma PK parameters were calculated with a standard non–compartmental analysis approach using Phoenix® WinNonlin® v6.4 (Certara USA, Inc., Princeton, NJ, USA).
Serial peripheral venous blood samples for the lurbinectedin PK analysis (and its metabolites M1 and M4) were collected in Cycle 1 and Cycle 2 (Sequences 1 and 2), with a schedule of thirteen samples in all patients as follows: at pre-dose, 5 min prior to the end of the lurbinectedin infusion, and at 0.5, 1, 2, 4, 6, 24, 48, 96, 168, 241, and 337 h post-dose on Days 1, 2, 3, 5, 8, 11, and 15. Only in Part B (Sequence 2) was a blood sampling test at 505 h post-lurbinectedin dosing to be collected before the lurbinectedin infusion started on Day 1 of Cycle 3, if detectable lurbinectedin concentrations were present in the pre-infusion sample in Cycle 2 of Part A. Blood samples for the PK analysis of itraconazole (and its active metabolite, hydroxy-itraconazole) were collected in cycles with itraconazole co-administration (i.e., Cycle 1 of Part A and B [Sequence 1] and Cycle 2 of Part B [Sequence 2]) at pre-dose and at 1, 2, 4, 24, and 168 h post-itraconazole dosing on Days 1, 2, and 8.

[3] = co-administration with itraconazole compared with lurbinectedin alone
[4] = treatment LRB alone (R), dose-normalized, n = 8
[5] = lurbinectedin + itraconazole divided by lurbinectedin alone

| Molecule | Mild and transient liver enzymes elevations, patients ([1]; chronic dosing) [%] | Risk of QTc prolongation in the electrocardiogram ([1]; especially at ≤200 mg once a day, in vitro data and clinical experience) | Conversion of lurbinectedin to the metabolite [2, 3] | Metabolite/parent ratio (MPR) of AUC0–t, geometric mean (CV%) ([2]; human, in vivo) | Metabolite/parent ratio (MPR) of Cmax, geometric mean (CV%) ([2]; human, in vivo) | Metabolite/parent ratio (MPR) of AUC0–t, geometric mean (CV%) [2, 4] | Metabolite/parent ratio (MPR) of Cmax, geometric mean (CV%) [2, 4] | Reduction of the conversion of lurbinectedin to the metabolite [2, 3] [%] | MPR of AUC0–t, least-squares geometric mean ratio [2, 5] [%] | MPR of Cmax, least-squares geometric mean ratio [2, 5] [%] |
| --- | --- | --- | --- | --- | --- | --- | --- | --- | --- | --- |
| CCC(C)n1ncn(-c2ccc(N3CCN(c4ccc(OCC5COC(Cn6cncn6)(c6ccc(Cl)cc6Cl)O5)cc4)CC3)cc2)c1=O (centres unmarked) [itraconazole] | < 5 | low | – | – | – | – | – | – | – | – |
| 1′,3′–dihydroxy–lurbinectedin [M1] | – | – | almost completely inhibited | 0.74 (NA) µg·h/L/mg | 0.38 (NA) µg/L/mg | 0.48 (360.01) µg·h/L/mg | 0.29 (135.88) µg/L/mg | – | – | – |
| COc1ccc2[nH]c3c(c2c1)CCN[C@]31CS[C@@H]2c3c(OC(C)=O)c(C)c4c(c3[C@H](COC1=O)N1[C@@H]2[C@@H]2N[C@@H](Cc3cc(C)c(OC)c(O)c32)[C@@H]1O)OCO4 [M4, N–desmethyl–lurbinectedin] | – | – | – | 1.29 (209.58) µg·h/L/mg | 0.61 (47.57) µg/L/mg | 1.45 (135.58) µg·h/L/mg | 0.49 (60.3) µg/L/mg | 69 | 31.53 | 92.47 |
